Data on 21 compounds can be found in ChEMBL document CHEMBL1152165, “Discovery of 1-benzoyl-3-cyanopyrrolo[1,2-a]quinolines as a new series of apoptosis inducers using a cell- and caspase-based high-throughput screening assay. Part 1: Structure-activity relationships of the 1- and 3-positions” (Bioorg Med Chem Lett, 2008).

A word on the EC50: it is the concentration needed to bring the measured effect to its halfway point. The GI50 is the concentration that inhibits growth by half. The IC50 is the midpoint of a concentration-inhibition curve. Read a high IC50 as weaker potency.

The subject of assay [1] is HCT-116. Description: Induction of apoptosis in human HCT116 cells assessed as caspase activation after 24 hrs. In kind it is functional, cell-based. The note with it: HCT-116, 24 h.
Assay [2] deals with SNU-398. Kind of assay: Induction of apoptosis in human SNU398 cells assessed as caspase activation after 24 hrs. In kind it is functional, cell-based. Particulars: SNU-398, 24 h.
Assay [3] deals with T47D. Description: Induction of apoptosis in human T47D cells assessed as caspase activation after 24 hrs. It counts as functional, cell-based.
The subject of assay [4] is T47D. Kind of assay: Growth inhibition of human T47D cells. It counts as functional.
The test system of assay [5] is HCT-116. Description: Growth inhibition of human HCT116 cells. It counts as functional.
For assay [6], the system named is SNU-398. Description: Growth inhibition of human SNU398 cells. In kind it is functional.
The subject of assay [7] is HCT-116. Description: Cell cycle arrest in human HCT116 cells by accumulation at G2/M phase by flow cytometry. In kind it is functional, cell-based. (In general: A flow cytometer gives signals particle by particle.)
Assay [8] can be described thus: Inhibition of tubulin polymerization.
In a further assay the test system is HT-29. Kind of assay: Growth inhibition of human HT-29 cells. It counts as functional.
Assay [9] is described as follows: Growth inhibition of human NAMALWA cells. It counts as functional. The note with it: NAMALVA.
The next assay has as its system ZR-75-1. Description: Growth inhibition of human ZR-75-1 cells. It counts as functional.
The nature of assay [10]: Inhibition of tubulin polymerization up to 50 uM.
In the next assay the test system is BT-474. Description: Growth inhibition of human BT474 cells. In kind it is functional.
Assay [11] can be described thus: Growth inhibition of human H1299 cells. It counts as functional. Particulars: NCI-H1299.
The subject of the next assay is SK-BR-3. Description: Growth inhibition of human SKBR3 cells. In kind it is functional.
Another assay concerns Raji. Description: Growth inhibition of human Raji cells. In kind it is functional.
Another assay deals with DLD-1. Kind of assay: Growth inhibition of human DLD1 cells. It counts as functional.
The next assay relates to K562. Description: Growth inhibition of human K562 cells. It counts as functional.

Activity calls are given as the source filed them. The calls are words filed in the database; no cut-off is given here.

As to `N#Cc1cc(C(=O)c2ccc(N3CCNCC3)cc2)n2c1ccc1ccccc12`, the EC50 in the assay on HCT-116 [1], in the assay on SNU-398 [2] and with T47D [3] was over 10000 nM in each case.
As for `CC(=O)c1cc(C(=O)c2ccc(C)cc2)n2c1ccc1ccccc12`, the EC50 in the assay with HCT-116 [1], in the assay on SNU-398 [2] and in the assay with T47D [3] was over 10000 nM in each case.
As for `N#Cc1cc(C(O)c2ccc(-n3cccn3)cc2)n2c1ccc1ccccc12` (stereo not drawn), the EC50 was 550 nM in the assay on HCT-116 [1], 350 nM in the assay with SNU-398 [2] and 160 nM in the assay with T47D [3].
As for `CCOC(=O)c1cc(C(=O)c2cccc(OC)c2)n2c1ccc1ccccc12`, the 50% effective concentration (EC50) with HCT-116 [1], with SNU-398 [2] and in the assay with T47D [3] was over 10000 nM each time.
Regarding `N#Cc1cc(C(=O)c2ccc(Cl)cc2)n2c1ccc1ccccc12`, the figures for the concentration giving a half-maximal response (EC50) in the assay on HCT-116 [1], with SNU-398 [2] and with T47D [3] were over 10000 nM, over 10000 nM and 49 nM, respectively.
Consider `N#Cc1cc(C(=O)c2cccnc2)n2c1ccc1ccccc12`, for which the half-maximal effective concentration (EC50) came out at 3700 nM in the assay on HCT-116 [1], 2600 nM in the assay with SNU-398 [2] and 690 nM in the assay on T47D [3].
As to `N#Cc1cc(C(=O)c2ccc(-n3ccnc3)cc2)n2c1ccc1ccccc12`, the GI50 stood at 41 nM in the assay with T47D [4], 65 nM in the assay on HCT-116 [5] and 59 nM with SNU-398 [6]. In addition, the figures for the EC50 with HCT-116 [1], in the assay on SNU-398 [2] and with T47D [3] were 74 nM, 39 nM and 34 nM, respectively. For the same compound, the outcome in the assay with HCT-116 [7] was Active. Half-maximal inhibition in assay [8] (IC50) required 5000 nM.
For the compound `N#Cc1cc(C(=O)c2ccc(N)cc2)n2c1ccc1ccccc12`, the GI50 worked out at 470 nM in the assay with T47D [4], 1200 nM with HCT-116 [5] and 420 nM with SNU-398 [6]. The EC50 turned out to be 240 nM in the assay on HCT-116 [1], 200 nM in the assay with SNU-398 [2] and 170 nM with T47D [3].
With `N#Cc1cc(C(=O)c2ccc(-n3cccn3)cc2)n2c1ccc1ccccc12`, the values for the concentration for 50% growth inhibition (GI50) in the assay on T47D [4], with HCT-116 [5] and in the assay on SNU-398 [6] were 72 nM, 240 nM and 36 nM, respectively. Further, the EC50 in the assay with HCT-116 [1] was 96 nM; in the assay with SNU-398 [2] it was 57 nM; in the assay on T47D [3] it was 41 nM. This compound also returned an IC50 in assay [8] of 1000 nM.
As for `N#Cc1cc(C(=O)c2ccc(F)cc2)n2c1ccc1ccccc12`, the half-maximal effective concentration (EC50) with HCT-116 [1] came out at 1200 nM; in the assay on SNU-398 [2] it was 880 nM; in the assay on T47D [3], 36 nM.
In the case of `N#Cc1cc(C(=O)c2ccccc2)n2c1ccc1ccccc12`, the concentration for 50% growth inhibition (GI50) with T47D [4] was 70 nM; in the assay on HT-29, 1200 nM; in assay [9] it was 1200 nM; in the assay with ZR-75-1, 70 nM; in the assay with HCT-116 [5], 5800 nM; in the assay with SNU-398 [6], 2000 nM. In addition, the GI50 in the assay on BT-474 amounted to 70 nM; in assay [11], 1200 nM; with SK-BR-3, 70 nM; in the assay with Raji, 1200 nM; with DLD-1, 1200 nM; in the assay on K562, 1200 nM. Moreover, the EC50 was 5500 nM in the assay with HCT-116 [1], 5200 nM in the assay with SNU-398 [2] and 78 nM in the assay on T47D [3]. Also, the result in [10] was inactive. The outcome in the assay with HCT-116 [7] was Active.
Consider `N#Cc1cc(C(=O)c2ccc(N3CCCC3)cc2)n2c1ccc1ccccc12`, for which the 50% growth inhibitory concentration (GI50) stood at 75 nM in the assay on T47D [4], 250 nM with HCT-116 [5] and 140 nM with SNU-398 [6]. The EC50 in the assay on HCT-116 [1] turned out to be 580 nM; in the assay with SNU-398 [2], 510 nM; with T47D [3], 300 nM.
On to `N#Cc1cc(C(O)c2ccc(N3CCCC3)cc2)n2c1ccc1ccccc12` (stereo not drawn), for which the results for the EC50 with HCT-116 [1], in the assay on SNU-398 [2] and with T47D [3] were 320 nM, 300 nM and 210 nM, respectively.
On to `COc1ccc(C(O)c2cc(C#N)c3ccc4ccccc4n23)cc1` (stereo not drawn), for which the concentration giving a half-maximal response (EC50) in the assay on HCT-116 [1] was determined as 240 nM; in the assay with SNU-398 [2], 140 nM; with T47D [3], 220 nM.
With `COc1ccc(C(=O)c2cc(C#N)c3ccc4ccccc4n23)cc1`, the GI50 was 71 nM in the assay on T47D [4], 490 nM in the assay on HCT-116 [5] and 120 nM in the assay on SNU-398 [6]. In addition, the concentration giving a half-maximal response (EC50) in the assay on HCT-116 [1] is 280 nM; in the assay with SNU-398 [2] it was 180 nM; in the assay on T47D [3], 280 nM.
With `CCN(CC)c1ccc(C(=O)c2cc(C#N)c3ccc4ccccc4n23)cc1`, the EC50 worked out at 370 nM in the assay on HCT-116 [1], 260 nM with SNU-398 [2] and 100 nM in the assay with T47D [3].
Regarding `Cc1ccccc1C(=O)c1cc(C#N)c2ccc3ccccc3n12`, the concentration for 50% growth inhibition (GI50) came to 87 nM with T47D [4], 1600 nM in the assay with HCT-116 [5] and 730 nM with SNU-398 [6]. The EC50 is 2500 nM in the assay on HCT-116 [1], 2700 nM with SNU-398 [2] and 140 nM with T47D [3].
Take `COc1cccc(C(=O)c2cc(C#N)c3ccc4ccccc4n23)c1`: the results for the EC50 with HCT-116 [1], in the assay with SNU-398 [2] and with T47D [3] were 1700 nM, 1600 nM and 170 nM, respectively.
Turning to `N#Cc1cc(C(=O)c2ccc([N+](=O)[O-])cc2)n2c1ccc1ccccc12`, the half-maximal effective concentration (EC50) was over 10000 nM in the assay on HCT-116 [1], over 10000 nM in the assay on SNU-398 [2] and 2800 nM in the assay on T47D [3].
In the case of `Cc1ccc(C(=O)c2cc(C#N)c3ccc4ccccc4n23)cc1`, the concentration for a half-maximal effect (EC50) came to 4200 nM with HCT-116 [1], 2700 nM with SNU-398 [2] and 930 nM with T47D [3].
For `N#Cc1cc(C(=O)c2ccccn2)n2c1ccc1ccccc12`, in that order: 1900 nM, 1600 nM and 40 nM.
